Test [1] has as its target T1, SbnE (Staphylococcus aureus, UniProt Q2G1M9).
T1 sequence (Q2G1M9 1-578): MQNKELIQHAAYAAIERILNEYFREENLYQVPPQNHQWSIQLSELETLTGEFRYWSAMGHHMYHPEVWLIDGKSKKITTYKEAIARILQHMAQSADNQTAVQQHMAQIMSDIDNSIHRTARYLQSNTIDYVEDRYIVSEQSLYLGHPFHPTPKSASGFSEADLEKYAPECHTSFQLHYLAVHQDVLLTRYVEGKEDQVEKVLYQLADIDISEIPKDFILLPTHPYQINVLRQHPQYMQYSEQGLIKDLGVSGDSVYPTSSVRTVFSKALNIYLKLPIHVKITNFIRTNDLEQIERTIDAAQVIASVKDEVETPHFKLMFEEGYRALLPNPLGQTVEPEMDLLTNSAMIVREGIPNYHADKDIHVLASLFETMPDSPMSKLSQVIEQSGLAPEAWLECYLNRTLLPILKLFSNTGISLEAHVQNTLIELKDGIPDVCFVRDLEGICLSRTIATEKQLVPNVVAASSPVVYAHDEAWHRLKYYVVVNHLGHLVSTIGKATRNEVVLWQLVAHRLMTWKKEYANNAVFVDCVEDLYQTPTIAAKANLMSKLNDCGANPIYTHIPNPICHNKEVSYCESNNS
The format is biochemical, S. aureus. The conditions noted are these: read-out: IC50 against SbnE.

Test [2] concerns the target T2, AsbA (Bacillus anthracis, UniProt A0A0F7RJ52). The format is biochemical, B. anthracis. The conditions noted are these: read-out: IC50 against AsbA.
Another test has as its target AsbB (Bacillus anthracis, UniProt Q81RQ8). The format is biochemical, B. anthracis. The conditions noted are these: for IC50: read-out: IC50 against AsbB.
The test system of a further test is S. aureus (Newman). The format is cell-based.
The target in test [3] is T1, SbnE. The format is biochemical, S. aureus.
For test [4], the target named is T2, AsbA. It counts as biochemical, B. anthracis.
In the next test the test system is MRSA (USA 300). The format is cell-based, S. aureus.
Test [5] deals with B. anthracis (Sterne 34F2). The format is cell-based.
Another test relates to S. typhimurium. It counts as cell-based, Salmonella typhimurium.
A further test concerns E. coli (MC 1061). The format is cell-based.
A further test deals with S. flexneri (BS103). It counts as cell-based, Shigella flexneri.

The values that follow come from PMC4028973 (Journal of the American Chemical Society, 2014).

Read-outs that look alike come from different tables or passages of the source.

Chain of AsbB (Q81RQ8 whole entry, looked up): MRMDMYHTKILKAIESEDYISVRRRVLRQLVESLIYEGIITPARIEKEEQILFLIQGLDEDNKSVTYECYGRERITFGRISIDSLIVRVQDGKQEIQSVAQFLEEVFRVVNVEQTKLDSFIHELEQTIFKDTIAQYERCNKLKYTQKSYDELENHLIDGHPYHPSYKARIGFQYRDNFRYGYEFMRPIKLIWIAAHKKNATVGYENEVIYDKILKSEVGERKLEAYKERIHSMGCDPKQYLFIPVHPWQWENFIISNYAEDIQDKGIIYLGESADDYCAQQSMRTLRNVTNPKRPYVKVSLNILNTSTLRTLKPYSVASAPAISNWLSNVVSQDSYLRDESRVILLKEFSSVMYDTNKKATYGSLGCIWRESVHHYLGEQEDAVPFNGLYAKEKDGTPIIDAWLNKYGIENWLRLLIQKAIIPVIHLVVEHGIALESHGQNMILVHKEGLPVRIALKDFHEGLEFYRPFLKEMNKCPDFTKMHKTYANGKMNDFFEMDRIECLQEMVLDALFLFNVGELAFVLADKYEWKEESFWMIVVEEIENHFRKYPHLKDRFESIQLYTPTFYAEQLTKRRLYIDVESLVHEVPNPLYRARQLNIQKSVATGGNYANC
T2 sequence (A0A0F7RJ52 whole entry, looked up): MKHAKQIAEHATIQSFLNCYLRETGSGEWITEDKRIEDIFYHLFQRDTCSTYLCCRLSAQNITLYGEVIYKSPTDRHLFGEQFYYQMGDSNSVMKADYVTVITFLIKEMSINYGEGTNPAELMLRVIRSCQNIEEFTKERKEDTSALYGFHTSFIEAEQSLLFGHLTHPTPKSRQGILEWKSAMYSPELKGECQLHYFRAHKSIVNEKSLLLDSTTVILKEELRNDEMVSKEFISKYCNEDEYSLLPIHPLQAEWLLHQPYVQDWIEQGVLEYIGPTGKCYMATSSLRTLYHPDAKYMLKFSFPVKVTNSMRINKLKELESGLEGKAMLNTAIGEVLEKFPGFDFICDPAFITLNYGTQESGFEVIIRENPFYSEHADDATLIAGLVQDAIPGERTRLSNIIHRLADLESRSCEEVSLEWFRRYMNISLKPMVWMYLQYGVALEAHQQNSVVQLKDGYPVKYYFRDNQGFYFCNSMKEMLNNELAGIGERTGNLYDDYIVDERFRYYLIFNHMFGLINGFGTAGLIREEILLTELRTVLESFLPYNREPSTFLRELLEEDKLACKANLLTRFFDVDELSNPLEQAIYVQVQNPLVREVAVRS

`CC(=O)[C@H](C)C[C@@H](C)C[C@H](C)CC[C@@H](O)C[C@@H](O)[C@@H](CC(C)C)[C@@H](O)c1cc(O)cc(O)c1` [BmcB, baulamycin B]: the IC50 (usually the concentration that gives 50% inhibition) on SbnE [1] is 19 µM; on AsbA [2] it was 200 µM; on AsbB, > 1000 µM. Further, the “inhibition against AsbB (in words)” value at AsbB is “negligible”. For the same compound, the “potency against S. aureus (Newman) cultures compared with BmcA (in words)” value with S. aureus (Newman) is listed as “significantly less potent”.
As for `CCC(=O)[C@H](C)C[C@@H](C)C[C@H](C)CC[C@@H](O)C[C@@H](O)[C@@H](CC(C)C)[C@@H](O)c1cc(O)cc(O)c1` [BmcA, baulamycin A], the IC50 was 4.8 µM at SbnE [1]; 180 µM at AsbA [2]; > 1000 µM on AsbB; 69 µM in the test with S. aureus (Newman) (read-out: IDM IC50, S. aureus (Newman)); 86 µM with S. aureus (Newman) (read-out: IRM IC50, S. aureus (Newman)); 130 µM with MRSA (USA 300) (read-out: IDM IC50, MRSA (USA 300)). In addition, the IC50 in the test with MRSA (USA 300) (read-out: IRM IC50, MRSA (USA 300)) was 130 µM; in [5] (read-out: IDM IC50, B. anthracis (Sterne 34F2)), 110 µM; in [5] (read-out: IRM IC50, B. anthracis (Sterne 34F2)), 120 µM; with S. typhimurium (read-out: IC50, S. typhimurium, iron-depleted conditions) it was > 1000 µM; in the test with S. typhimurium (read-out: IC50, S. typhimurium, iron-rich conditions), > 1000 µM; in the test with S. typhimurium (read-out: IDM IC50, S. typhimurium) it was > 1000 µM. Also, the 50% inhibitory concentration (IC50) was > 1000 µM in the test with S. typhimurium (read-out: IRM IC50, S. typhimurium); 4.2 µM with E. coli (MC 1061) (read-out: IDM IC50, E. coli (MC 1061)); 150 µM with E. coli (MC 1061) (read-out: IRM IC50, E. coli (MC 1061)); 20 µM in the test on S. flexneri (BS103) (read-out: IDM IC50, S. flexneri (BS103)); 46 µM with S. flexneri (BS103) (read-out: IRM IC50, S. flexneri (BS103)). In addition, on AsbB, the “inhibition against AsbB (in words)” value is given as “negligible”. Also, the “mode of inhibition of SbnE” value at SbnE [3] is given as “reversible, competitive”. In addition, the Ki (commonly a dissociation constant, usually derived from enzyme kinetics or from competition with a known ligand) at SbnE [3] (read-out: Ki, SbnE, with respect to ATP) was 680 µM; on SbnE [3] (read-out: Ki, SbnE, with respect to citric acid), 50 µM; at SbnE [3] (read-out: Ki, SbnE, with respect to polyamine substrate) it was 210 µM; on AsbA [4] (read-out: Ki, AsbA, with respect to ATP), 230 µM; at AsbA [4] (read-out: Ki, AsbA, with respect to citric acid), 110 µM; on AsbA [4] (read-out: Ki, AsbA, with respect to polyamine substrate), 170 µM. Besides, at AsbA [4], the “mode of inhibition of AsbA” value was “reversible, competitive”.
